From patent US5510355A, “Depolarizing skeletal muscle relaxants” (priority 1994, dated 1996)
Structures can show the parent of a compound that is named as a salt. Where two headings read alike, the source gives them in different places.

Legend:
[1] = target: T1, muscle-like nicotinic receptors (human clonal line TE671/RD) (Homo sapiens, UniProt P02708+P07510+Q07001); assay: cell-based; details: for Emax: read-out: HUMAN MUSCLE Emax (maximal activation as percentage of that induced by acetylcholine); for potency relative to succinylcholine, in words: comparison of EC50 values with Sample No. C-2; for efficacy relative to succinylcholine, in words: comparison of Emax values with Sample No. C-2
T1 construct: these cells express muscle-like nicotinic receptors; endogenous in cells; host or cells: TE671/RD (human embryonal rhabdomyosarcoma line)
T1 sequence (P07510 23-517): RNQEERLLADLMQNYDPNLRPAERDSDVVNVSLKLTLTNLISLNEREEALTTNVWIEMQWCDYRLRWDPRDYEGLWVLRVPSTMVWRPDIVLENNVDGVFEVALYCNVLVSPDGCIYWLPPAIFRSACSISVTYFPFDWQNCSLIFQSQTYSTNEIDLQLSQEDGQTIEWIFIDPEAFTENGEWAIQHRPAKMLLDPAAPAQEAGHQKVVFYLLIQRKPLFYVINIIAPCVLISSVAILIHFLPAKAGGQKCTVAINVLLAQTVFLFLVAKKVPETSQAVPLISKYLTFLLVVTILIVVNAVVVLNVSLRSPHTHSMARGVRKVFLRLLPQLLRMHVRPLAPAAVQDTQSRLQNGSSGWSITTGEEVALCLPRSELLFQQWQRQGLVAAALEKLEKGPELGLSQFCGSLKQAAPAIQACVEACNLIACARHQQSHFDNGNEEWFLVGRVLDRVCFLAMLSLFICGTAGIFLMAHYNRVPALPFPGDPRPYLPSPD
T1 sequence (P02708 21-457): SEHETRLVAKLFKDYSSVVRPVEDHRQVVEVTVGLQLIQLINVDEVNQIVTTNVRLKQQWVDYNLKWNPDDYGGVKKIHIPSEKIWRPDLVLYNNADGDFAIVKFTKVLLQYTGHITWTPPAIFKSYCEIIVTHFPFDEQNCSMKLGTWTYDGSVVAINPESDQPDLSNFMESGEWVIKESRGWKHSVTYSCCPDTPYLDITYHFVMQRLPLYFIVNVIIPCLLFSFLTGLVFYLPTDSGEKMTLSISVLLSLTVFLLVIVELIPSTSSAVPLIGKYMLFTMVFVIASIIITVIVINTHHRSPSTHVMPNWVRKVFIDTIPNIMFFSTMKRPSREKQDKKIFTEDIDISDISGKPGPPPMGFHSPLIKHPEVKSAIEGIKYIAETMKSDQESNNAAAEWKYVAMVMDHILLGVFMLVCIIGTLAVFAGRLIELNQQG
T1 sequence (Q07001 22-517): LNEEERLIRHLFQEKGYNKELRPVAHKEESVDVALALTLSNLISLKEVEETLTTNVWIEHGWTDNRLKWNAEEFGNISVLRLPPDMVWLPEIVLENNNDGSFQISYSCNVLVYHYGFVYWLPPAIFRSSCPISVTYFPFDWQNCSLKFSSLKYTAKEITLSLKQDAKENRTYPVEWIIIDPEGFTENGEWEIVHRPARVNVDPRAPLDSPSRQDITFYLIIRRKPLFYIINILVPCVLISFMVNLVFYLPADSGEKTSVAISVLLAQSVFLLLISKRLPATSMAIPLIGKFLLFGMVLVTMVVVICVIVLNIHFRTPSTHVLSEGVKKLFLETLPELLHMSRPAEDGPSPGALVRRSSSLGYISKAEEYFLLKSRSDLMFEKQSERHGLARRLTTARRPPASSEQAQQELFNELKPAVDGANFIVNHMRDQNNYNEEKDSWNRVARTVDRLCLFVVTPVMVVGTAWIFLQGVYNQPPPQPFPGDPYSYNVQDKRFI
Description: (§1) The selectivity at muscle nicotinic receptors of the various analogs described in this invention was determined by their functional efficacies and potencies at muscle and ganglionic sites.
(§2) Intact cells on dishes were used for functional studies.
(§3) The medium was removed and ^86 Rb^+ was quantitated using Cerenkov detection. […] Specific ion efflux was determined as the difference in isotope efflux between total and non-specific efflux samples. Dose-response curves were plotted and the concentration resulting in half maximal activation of specific ion flux through nicotinic receptors determined for human muscle and rat ganglionic preparations (EC50).

[2] = test system: ganglionic-type neuronal nicotinic receptors (rat pheochromocytoma clonal line PC12); type: cell-based
Description: as §1
Ganglionic effects were established on the rat pheochromocytoma clonal line PC12 which is a continuous clonal cell line of neural crest origin derived from a tumor of the rat adrenal medulla expressing ganglionic-type neuronal nicotinic receptors. […] Discussion concerning the heterogeneity of nicotinic receptors subtypes is set forth in Lukas et al., Internatl. […] See, Fornasari et al., Neurosci.
as §2, §3

[3] = human muscle, TE671/RD, 86Rb+ efflux, 4 minutes at 20° C., read-out: HUMAN MUSCLE EC50 (concentration resulting in half maximal activation of specific ion flux)
[4] = rat ganglia, PC12, 86Rb+ efflux, 4 minutes at 20° C.; read-out: RAT GANGLIA EC50 (concentration resulting in half maximal activation of specific ion flux)

| Structure (SMILES) | Emax ([1]; TE671/RD) | EC50 [1, 3] | potency relative to succinylcholine, in words ([1]; human muscle) | efficacy relative to succinylcholine, in words ([1]; human muscle) | RAT GANGLIA Emax (maximal activation as percentage of that induced by acetylcholine) [2] | ganglionic effects, in words ([2]; ganglionic-type receptors) | EC50 [2, 4] | EC50 [1] | RAT GANGLIA Emax (maximal activation as percentage of that induced by acetylcholine) ([2]; rat ganglia, PC12, % of acetylcholine maximum) | EC50 ([2]; read-out: RAT GANGLIA EC50 (concentration resulting in half maximal activation of specific ion flux); rat ganglia, PC12, 86Rb+ efflux, 4 minutes at 20° C.) |
| --- | --- | --- | --- | --- | --- | --- | --- | --- | --- | --- |
| Fc1cncc(C2CCCN2)c1 (racemic) [Sample No. 5, (+/-)-5-fluoronornicotine] | 160% | 30 µM | at least as potent as succinylcholine | more efficacious than succinylcholine | < 10% |  |  |  |  |  |
| CC(=O)OCC[N+](C)(C)C [C-1, acetylcholine, reference compound] |  |  |  |  | 100% |  |  |  |  |  |
| C[N+](C)(C)CCOC(=O)CCC(=O)OCC[N+](C)(C)C [Sample No. C-2, succinylcholine chloride, reference compound] | 95% | 30 µM |  |  | 0% |  |  |  |  |  |
| CC(=O)OCC1CC2CCN1CC2.[O-][Cl+3]([O-])([O-])O (racemic) [Sample No. 4, (+/-)-2-acetoxymethylquinuclidine perchlorate] | 200% | 3 µM | more potent | more efficacious than succinylcholine | 60% | only at relatively high concentrations | 50 µM |  |  |  |
| c1cncc(C2=NCCCC2)c1 [Sample No. 3, anabaseine dihydrochloride] | 200% |  | more potent | more efficacious than succinylcholine |  | only at relatively high concentrations |  | 2 µM | 80% | 50 µM |
| CN1CCCC1c1cncc(Cl)c1.[O-][Cl+3]([O-])([O-])O (racemic) [Sample No. 6, (+/-)-5-chloronicotine perchlorate] | 110% | 30 µM | at least as potent as succinylcholine | more efficacious than succinylcholine | 0% |  |  |  |  |  |
| O=C(O)/C=C/C(=O)O.O=C(O)/C=C/C(=O)O.c1cncc(C2CC3CCN2CC3)c1 (racemic) [Sample No. 1, (+/-)-2-(3-pyridyl)-quinuclidine difumarate] | 130% | 0.055 µM | more potent | more efficacious than succinylcholine | 100% | only at relatively high concentrations | 2 µM |  |  |  |
| Fc1cncc(C2=NCCCC2)c1 [Sample No. 2, 5-fluoroanabaseine dipicrate] | 220% | 1 µM | very potent relative to succinylcholine | very efficacious relative to succinylcholine | 0% | no observed ganglionic effects |  |  |  |  |
